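Here, GI50 denotes the concentration required for 50% inhibition of growth. Definition used: TGI = concentration required for complete inhibition of growth.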
Key:
Test in all cases: DTP human tumour cell line panel, 384-well format
786-0 renal = system: 786-0 renal
A498 renal = system: A498 renal
A549 NSCLC = system: A549 NSCLC
ACHN renal = system: ACHN renal
BT-549 breast = system: BT-549 breast
CAKI-1 renal = system: CAKI-1 renal
CCRF-CEM leukemia = system: CCRF-CEM leukemia
COLO 205 colon = system: COLO 205 colon
DU-145 prostate = system: DU-145 prostate
HCC-2998 colon = system: HCC-2998 colon
HCT-116 colon = system: HCT-116 colon
HCT-15 colon = system: HCT-15 colon
HL-60(TB) leukemia = system: HL-60(TB) leukemia
HOP-62 NSCLC = system: HOP-62 NSCLC
HT29 colon = system: HT29 colon
IGROV1 ovarian = system: IGROV1 ovarian
K-562 leukemia = system: K-562 leukemia
KM12 colon = system: KM12 colon
LOX IMVI melanoma = system: LOX IMVI melanoma
M14 melanoma = system: M14 melanoma
MALME-3M melanoma = system: MALME-3M melanoma
MCF7 breast = system: MCF7 breast
MDA-MB-231 breast = system: MDA-MB-231 breast
MDA-MB-435 melanoma = system: MDA-MB-435 melanoma
MDA-MB-468 breast = system: MDA-MB-468 breast
MOLT-4 leukemia = system: MOLT-4 leukemia
NCI-H226 lung = system: NCI-H226 lung
NCI-H23 lung = system: NCI-H23 lung
NCI-H322M lung = system: NCI-H322M lung
NCI-H460 NSCLC = system: NCI-H460 NSCLC
NCI-H522 lung = system: NCI-H522 lung
NCI/ADR-RES ovarian = system: NCI/ADR-RES ovarian
OVCAR-3 ovarian = system: OVCAR-3 ovarian
OVCAR-5 ovarian = system: OVCAR-5 ovarian
PC-3 prostate = system: PC-3 prostate
RPMI-8226 leukemia = system: RPMI-8226 leukemia
RXF 393 renal = system: RXF 393 renal
SF-268 CNS = system: SF-268 CNS
SF-295 CNS = system: SF-295 CNS
SF-539 CNS = system: SF-539 CNS
SK-MEL-2 melanoma = system: SK-MEL-2 melanoma
SK-MEL-28 melanoma = system: SK-MEL-28 melanoma
SK-MEL-5 melanoma = system: SK-MEL-5 melanoma
SK-OV-3 ovarian = system: SK-OV-3 ovarian
SN12C renal = system: SN12C renal
SNB-19 CNS = system: SNB-19 CNS
SR leukemia = system: SR leukemia
SW-620 colon = system: SW-620 colon
T-47D breast = system: T-47D breast
TK-10 renal = system: TK-10 renal
U251 glioblastoma = system: U251 glioblastoma
UACC-257 melanoma = system: UACC-257 melanoma
UACC-62 melanoma = system: UACC-62 melanoma
UO-31 renal = system: UO-31 renal

What does the source list for `COc1cc2nccc(Oc3ccc(NC(=O)c4cn(C(C)C)c(=O)n(-c5ccc(F)cc5)c4=O)cc3F)c2cc1OC`?
GI50 ([…]-0 renal): 18.9 µM; TGI (786-0 renal): > 100 µM; GI50 (A498 renal): 3.41 µM; TGI (A498 renal): > 100 µM; GI50 (A549 NSCLC): 4.67 µM; TGI (A549 NSCLC): > 100 µM; GI50 (ACHN renal): 1.75 µM; TGI (ACHN renal): 5.13 µM; GI50 (BT-549 breast): 5.27 µM; TGI (BT-549 breast): > 100 µM; GI50 (CAKI-1 renal): 1.46 µM; TGI (CAKI-1 renal): 2.81 µM; GI50 (CCRF-CEM leukemia): > 100 µM; TGI (CCRF-CEM leukemia): > 100 µM; GI50 (COLO 205 colon): > 100 µM; TGI (COLO 205 colon): > 100 µM; GI50 (DU-145 prostate): > 100 µM; TGI (DU-145 prostate): > 100 µM; GI50 (HCC-2998 colon): > 100 µM; TGI (HCC-2998 colon): > 100 µM; GI50 (HCT-116 colon): 5.93 µM; TGI (HCT-116 colon): > 100 µM; GI50 (HCT-15 colon): > 100 µM; TGI (HCT-15 colon): > 100 µM; GI50 (HL-60(TB) leukemia): 2.6 µM; TGI (HL-60(TB) leukemia): > 100 µM; GI50 (HOP-62 NSCLC): 15 µM; TGI (HOP-62 NSCLC): > 100 µM; GI50 (HT29 colon): 7.99 µM; TGI (HT29 colon): > 100 µM; GI50 (IGROV1 ovarian): 5.5 µM; TGI (IGROV1 ovarian): > 100 µM; GI50 (K-562 leukemia): 0.0235 µM; TGI (K-562 leukemia): 0.137 µM; GI50 (KM12 colon): 0.0315 µM; TGI (KM12 colon): > 100 µM; GI50 (LOX IMVI melanoma): > 100 µM; TGI (LOX IMVI melanoma): > 100 µM; GI50 (M14 melanoma): 82.6 µM; TGI (M14 melanoma): > 100 µM; GI50 (MALME-3M melanoma): 2.85 µM; TGI (MALME-3M melanoma): > 100 µM; GI50 (MCF7 breast): 7.28 µM; TGI (MCF7 breast): > 100 µM; GI50 (MDA-MB-231 breast): 3.06 µM; TGI (MDA-MB-231 breast): > 100 µM; GI50 (MDA-MB-435 melanoma): > 100 µM; TGI (MDA-MB-435 melanoma): > 100 µM; GI50 (MDA-MB-468 breast): 6.91 µM; TGI (MDA-MB-468 breast): > 100 µM; GI50 (MOLT-4 leukemia): 0.407 µM; TGI (MOLT-4 leukemia): 4.2 µM; GI50 (NCI-H226 lung): 3.81 µM; TGI (NCI-H226 lung): 61.4 µM; GI50 (NCI-H23 lung): 0.0469 µM; TGI (NCI-H23 lung): > 100 µM; GI50 (NCI-H322M lung): > 100 µM; TGI (NCI-H322M lung): > 100 µM; GI50 (NCI-H460 NSCLC): 4.01 µM; TGI (NCI-H460 NSCLC): > 100 µM; GI50 (NCI-H522 lung): 1.65 µM; TGI (NCI-H522 lung): 5.66 µM; GI50 (NCI/ADR-RES ovarian): > 100 µM; TGI (NCI/ADR-RES ovarian): > 100 µM; GI50 (OVCAR-3 ovarian): > 100 µM; TGI (OVCAR-3 ovarian): > 100 µM; GI50 (OVCAR-5 ovarian): > 100 µM; TGI (OVCAR-5 ovarian): > 100 µM; GI50 (PC-3 prostate): 18.4 µM; TGI (PC-3 prostate): > 100 µM; GI50 (RPMI-8226 leukemia): 3.95 µM; TGI (RPMI-8226 leukemia): > 100 µM; GI50 (RXF 393 renal): 0.63 µM; TGI (RXF 393 renal): 4.89 µM; GI50 (SF-268 CNS): 3.37 µM; TGI (SF-268 CNS): > 100 µM; GI50 (SF-295 CNS): 0.271 µM; TGI (SF-295 CNS): > 100 µM; GI50 (SF-539 CNS): 1.3 µM; TGI (SF-539 CNS): 2.85 µM; GI50 (SK-MEL-2 melanoma): 2.29 µM; TGI (SK-MEL-2 melanoma): 9.87 µM; GI50 (SK-MEL-28 melanoma): 2.97 µM; TGI (SK-MEL-28 melanoma): > 100 µM; GI50 (SK-MEL-5 melanoma): 4.94 µM; TGI (SK-MEL-5 melanoma): > 100 µM; GI50 (SK-OV-3 ovarian): 5.58 µM; TGI (SK-OV-3 ovarian): > 100 µM; GI50 (SN12C renal): 0.642 µM; TGI (SN12C renal): > 100 µM; GI50 (SNB-19 CNS): > 100 µM; TGI (SNB-19 CNS): > 100 µM; GI50 (SR leukemia): 2.69 µM; TGI (SR leukemia): 20.6 µM; GI50 (SW-620 colon): 9.13 µM; TGI (SW-620 colon): > 100 µM; GI50 (T-47D breast): 1.5 µM; TGI (T-47D breast): 6.25 µM; GI50 (TK-10 renal): 96.6 µM; TGI (TK-10 renal): > 100 µM; GI50 (U251 glioblastoma): > 100 µM; TGI (U251 glioblastoma): > 100 µM; GI50 (UACC-257 melanoma): 2.33 µM; TGI (UACC-257 melanoma): 8.74 µM; GI50 (UACC-62 melanoma): 4.5 µM; TGI (UACC-62 melanoma): > 100 µM; GI50 (UO-31 renal): 0.246 µM; TGI (UO-31 renal): 0.65 µM

Reference: PubChem BioAssay (NCI)
